# Results as given in patent US20190225650A1, “PEPTIDOMIMETIC MACROCYCLES AND USE THEREOF IN REGULATING HIF1ALPHA” (AILERON THERAPEUTICS, INC., priority 2013, published 2019).
# Bridge positions count the residues as written; N and C are the ends. Square brackets hold non-standard residues; d marks the D form. Peptide text beside a SMILES is read from it. R8 = C=CCCCCCC[C@@](C)(N)C(=O)O; S5 = C=CCCC[C@](C)(N)C(=O)O; Nle = CCCC[C@H](N)C(=O)O; Abu = CC[C@H](N)C(=O)O
# Tests used:
# [1] = system: HRE-bla ME-180 cells; assay: Reporter gene assay (HRE-bla ME-180 HIF reporter, GeneBLAzer); type: cell-based, human; conditions: for EC50: 24 hour normoxia
# Method in brief: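 A FRET β-lactamase readout of HIF transcription was used. After compound treatment in 0.3% DMSO/media under normoxic conditions, 20 μl of 6× LiveBLAzer-FRET B/G (CCF4-AM) substrate was added. Plates sat 3 hr at room temperature in the dark and were read at 409 Ex/460Em and 409Ex/530Em on a Synergy 2. Inhibition was compared against DMSO vehicle controls, with chetomin as positive control.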
# [2] = system: HRE-bla ME-180 cells; assay: Cell proliferation assay (viability, MTT, 1% FBS); type: cell-based, human
# Procedure: The human cervical cell line HRE-Bla ME-180 was obtained from Invitrogen. 2×10^4 ME-180 cells were plated in 96-well plates (costar) in Opti-MEM plus 1% FBS (Invitrogen). After 4 hr, cells were pretreated with chetomin, peptide or 0.5% DMSO (final concentration in media) vehicle control for 16 hr under normoxia (21% O2); then incubation continued under normoxia or hypoxia (1% O2) using a hypoxia incubator (Thermo Forma model). Viable cell numbers were quantified using CellTiter 96 Non-Radioactive Cell Proliferation kit (Promega, G4100). The results are presented in the column “Viability 1% FBS AVG (MTT V3-24 hr Normoxia) (μM)” of Table 6.
SMILES,18 h Avg % max inhibition at top conc (HIF Rptr-24 hrs normoxia) (μM) [1],EC50 [1],Viability 1% FBS AVG (MTT V3-24 hr Normoxia) (μM) [2]
"CCCC[C@H](NC(=O)[C@H](CCC(=O)O)NC(=O)[C@@H](NC(=O)[C@@H](NC(=O)[C@H](CC(C)C)NC(=O)[C@]1(C)CCCC=CCCC[C@](C)(NC(=O)[C@H](CCC(=O)O)NC(=O)[C@H](CC(=O)O)NC(=O)[C@@H](NC(=O)[C@H](CC(N)=O)NC(=O)[C@@H](NC(=O)[C@H](CCC(N)=O)NC(=O)[C@]2(C)CCCC=CCCC[C@](C)(NC(=O)[C@H](CC(C)C)NC(=O)[C@H](CCC(=O)O)NC(=O)[C@H](CCC(=O)O)NC(=O)CNC(=O)[C@H](CCC(N)=O)NC(=O)[C@H](CC(C)C)NC(=O)[C@H](CC(C)C)NC(C)=O)C(=O)N[C@@H](CCCNC(=N)N)C(=O)N[C@@H](C)C(=O)N[C@@H](CC(C)C)C(=O)N2)C(C)C)[C@@H](C)CC)C(=O)N[C@@H](C(C)C)C(=O)N[C@@H](CC(C)C)C(=O)N[C@@H](CCCC)C(=O)N1)C(C)C)[C@@H](C)CC)C(=O)NCC(N)=O [SP-327] (Ac-LLQGEEL[S5]RAL[S5]QVNIDE[S5]VL[Nle][S5]LVIE[Nle]G-NH2; staple 8-12, 19-23)",+ (<10: +),> 30 µM,++++ (≥30: ++++)
CC[C@H](C)[C@H](NC(=O)[C@H](Cc1ccccc1)NC(C)=O)C(=O)N[C@@H](CC(=O)O)C(=O)N[C@@H](CCC(=O)O)C(=O)N[C@H](C(=O)N[C@H](C(=O)N[C@@H](CC(C)C)C(=O)N[C@@H](CCSC)C(=O)N[C@@]1(C)CCCC=CCCC[C@@](C)(C(=O)N[C@@H](CCSC)C(=O)N[C@@H](C)C(=O)N[C@@H](CC(C)C)C(N)=O)NC(=O)[C@H]([C@@H](C)CC)NC(=O)[C@H](C(C)C)NC(=O)[C@H](CC(C)C)NC1=O)C(C)C)[C@@H](C)O [SP-239] (Ac-FIDETVLM[S5]LVI[S5]MAL-NH2; staple 9-13),++ (≤10 but <25: ++),> 30 µM,++++ (≥30: ++++)
"CC[C@@H]1NC(=O)[C@H](CC(=O)O)NC(=O)[C@H](Cc2ccc(O)cc2)NC(=O)[C@@](C)(NC(=O)[C@@H](NC(=O)[C@H](CC(C)C)NC(=O)[C@H](CCC(N)=O)NC(=O)[C@@H]2CCCN2C(=O)[C@H](CC(C)C)NC(=O)[C@H](CCC(=O)O)NC(=O)[C@H](CCCCN)NC(=O)[C@@H](NC(=O)[C@H](CCCNC(=N)N)NC(=O)[C@H](CC(=O)O)NC(=O)[C@H](CC(C)C)NC(=O)CNC(=O)[C@H](CCSC)NC(=O)[C@H](CCC(=O)O)NC(=O)[C@@H](NC(=O)[C@@H](NC(=O)[C@H](CC(C)C)NC(=O)[C@]2(C)CCCC=CCCC[C@](C)(NC(=O)[C@H](CCC(=O)O)NC(=O)[C@H](CC(=O)O)NC(=O)[C@@H](NC(=O)[C@H](Cc3ccccc3)NC(C)=O)[C@@H](C)CC)C(=O)N[C@@H](C(C)C)C(=O)N[C@@H](CC(C)C)C(=O)N[C@@H](CCSC)C(=O)N2)C(C)C)[C@@H](C)CC)[C@@H](C)CC)[C@@H](C)O)CCCC=CCCC[C@@](C)(C(=O)N[C@H](C(=O)N[C@@H](CC(N)=O)C(=O)N[C@@H](C)C(N)=O)C(C)C)NC1=O [SP-322] (Ac-FIDE[S5]VLM[S5]LVIEMGLDRIKELPQLT[S5]YD[Abu][S5]VNA-NH2; staple 5-9, 27-31)",+ (<10: +),> 30 µM,++++ (≥30: ++++)
CCCC[C@H](NC(=O)[C@H](Cc1ccccc1)NC(=O)[C@@H](NC(=O)[C@H](C)NC(=O)[C@H](CCC(N)=O)NC(=O)[C@H](CC(=O)O)NC(=O)[C@@H](NC(=O)[C@H](Cc1ccccc1)NC(C)=O)[C@@H](C)CC)C(C)C)C(=O)N[C@@]1(C)CCCC=CCCC[C@@](C)(C(=O)N[C@@H](CCC(N)=O)C(=O)N[C@@H](C)C(=O)N[C@@H](CC(C)C)C(=O)N[C@@H](CC(C)C)C(N)=O)NC(=O)[C@H]([C@@H](C)CC)NC(=O)[C@H](C(C)C)NC(=O)[C@H](CC(C)C)NC1=O [SP-255] (Ac-FIDQAVF[Nle][S5]LVI[S5]QALL-NH2; staple 9-13),++++ (≥50: ++++),≤ 5 µM,+ (<5: +)
"CCCC[C@H](NC(=O)[C@H](C)NC(=O)[C@]1(C)CCCC=CCCCCCC[C@@](C)(NC(=O)[C@H](C)NC(=O)[C@H](C)NC(=O)[C@@H](NC(=O)[C@H](CC(N)=O)NC(=O)[C@@H](NC(=O)[C@H](CCC(N)=O)NC(=O)[C@]2(C)CCCC=CCCC[C@](C)(NC(=O)[C@H](CC(C)C)NC(=O)[C@H](C)NC(=O)[C@H](C)NC(=O)CNC(=O)[C@H](CCC(N)=O)NC(=O)[C@H](CC(C)C)NC(=O)[C@H](CC(C)C)NC(C)=O)C(=O)N[C@@H](CCCNC(=N)N)C(=O)N[C@@H](C)C(=O)N[C@@H](CC(C)C)C(=O)N2)C(C)C)[C@@H](C)CC)C(=O)N[C@@H](C(C)C)C(=O)N[C@@H](CC(C)C)C(=O)N[C@@H](CCCC)C(=O)N[C@@H](CO)C(=O)N[C@@H](CC(C)C)C(=O)N[C@@H](C(C)C)C(=O)N1)C(N)=O [SP-364] (Ac-LLQGAAL[S5]RAL[S5]QVNIAA[R8]VL[Nle]SLV[S5]A[Nle]-NH2; staple 8-12, 19-26)",++ (≤10 but <25: ++),> 30 µM,++++ (≥30: ++++)
